# Experimental data published in PubChem BioAssay AID2060603 (Molecular Pharmacology Branch, DTP, NCI, 2025).
# Tested on: 422866-222-R5-J1-PDC spheroid viability
# Assay: Anticancer human tumor 422866-222-R5-J1-PDC patient-derived pancreatic adenocarcinoma cell line growth inhibition [CLK]
# Conditions: spheroids with HUVEC and MSC; for IC50: curve of first compound; for viability, T/C: stronger effect = lower value
# How it was run: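 Patient-derived tumor cells grown as complex spheroids with HUVEC endothelial cells and mesenchymal stem cells, treated with drug combinations. Concentrations descend in half-log steps from near clinical Cmax, or from 10 microM if Cmax unknown.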
# 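Also: spheroids exposed to agents for seven days before readout.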
structure (smiles),measurement,setting,value
NC(=O)C(=Cn1cnc(-c2cc(C(F)(F)F)cc(C(F)(F)F)c2)n1)c1cncnc1 + CNC(=O)c1ccc(Nc2nc(OC3CCCC3)c3c(-c4ccc5nc(C)oc5c4)c[nH]c3n2)c(OC)c1,IC50,second compound 0.0316 µM,> 3000 nM
same,IC50,second compound 0.1 µM,> 3000 nM
same,IC50,second compound 0.316 µM,279 nM
same,IC50,second compound 1 µM,55.4 nM
same,IC50,second compound 3.16 µM,37 nM
same,IC50,second compound 10 µM,55.2 nM
same,"viability, T/C","second compound 0.0316 µM, first compound 0.00949 µM",98.7%
same,"viability, T/C","second compound 0.0316 µM, first compound 0.03 µM",107%
same,"viability, T/C","second compound 0.0316 µM, first compound 0.0949 µM",95.1%
same,"viability, T/C","second compound 0.0316 µM, first compound 0.3 µM",47.6%
same,"viability, T/C","second compound 0.0316 µM, first compound 0.949 µM",75.6%
same,"viability, T/C","second compound 0.0316 µM, first compound 3 µM",76.5%
same,"viability, T/C","second compound 0.1 µM, first compound 0.00949 µM",98.5%
same,"viability, T/C","second compound 0.1 µM, first compound 0.03 µM",115%
same,"viability, T/C","second compound 0.1 µM, first compound 0.0949 µM",66.6%
same,"viability, T/C","second compound 0.1 µM, first compound 0.3 µM",46.2%
same,"viability, T/C","second compound 0.1 µM, first compound 0.949 µM",47.5%
same,"viability, T/C","second compound 0.1 µM, first compound 3 µM",67.5%
same,"viability, T/C","second compound 0.316 µM, first compound 0.00949 µM",86.1%
same,"viability, T/C","second compound 0.316 µM, first compound 0.03 µM",87.6%
same,"viability, T/C","second compound 0.316 µM, first compound 0.0949 µM",56.8%
same,"viability, T/C","second compound 0.316 µM, first compound 0.3 µM",31.4%
same,"viability, T/C","second compound 0.316 µM, first compound 0.949 µM",45.4%
same,"viability, T/C","second compound 0.316 µM, first compound 3 µM",71.8%
same,"viability, T/C","second compound 1 µM, first compound 0.00949 µM",52%
same,"viability, T/C","second compound 1 µM, first compound 0.03 µM",69.5%
same,"viability, T/C","second compound 1 µM, first compound 0.0949 µM",40.6%
same,"viability, T/C","second compound 1 µM, first compound 0.3 µM",21.7%
same,"viability, T/C","second compound 1 µM, first compound 0.949 µM",32.3%
same,"viability, T/C","second compound 1 µM, first compound 3 µM",54.9%
same,"viability, T/C","second compound 3.16 µM, first compound 0.00949 µM",45.7%
same,"viability, T/C","second compound 3.16 µM, first compound 0.03 µM",60.2%
same,"viability, T/C","second compound 3.16 µM, first compound 0.0949 µM",37.3%
same,"viability, T/C","second compound 3.16 µM, first compound 0.3 µM",21.3%
same,"viability, T/C","second compound 3.16 µM, first compound 0.949 µM",29.5%
same,"viability, T/C","second compound 3.16 µM, first compound 3 µM",48.2%
same,"viability, T/C","second compound 10 µM, first compound 0.00949 µM",55.1%
same,"viability, T/C","second compound 10 µM, first compound 0.03 µM",65.4%
same,"viability, T/C","second compound 10 µM, first compound 0.0949 µM",40.9%
same,"viability, T/C","second compound 10 µM, first compound 0.3 µM",27.9%
same,"viability, T/C","second compound 10 µM, first compound 0.949 µM",37.2%
same,"viability, T/C","second compound 10 µM, first compound 3 µM",49.3%
